Data on eleven compounds can be found in PubChem BioAssay (NCI).

What all share (test): DTP human tumour cell line panel, 48 h
Test [1] relates to RXF 393 renal.
For test [2], the system named is SK-MEL-5 melanoma.
Test [3] concerns SNB-75 CNS.
Test [4] relates to HCT-15 colon.
In test [5] the test system is MOLT-4 leukemia.
Test [6] concerns SF-268 CNS.
In test [7] the test system is SNB-19 CNS.
For test [8], the system named is NCI-H23 lung.
Test [9] concerns RPMI-8226 leukemia.
Test [10] has as its system TK-10 renal.

“And” between values parts separate entries of the source, which are not always exact repeats. Equal values may be shown once.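 Five compound concentrations were applied to cells in 96-well plates for 48 hours; endpoints were derived by simple linear interpolation of the resulting dose-response curve. Here, GI50 denotes the concentration required for 50% inhibition of growth. TGI: total growth inhibition.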

On to `O=CCC1CCCCC1`, for which the TGI in test [1], in [2], in [3], in [4], in test [5] and in test [6] was above 100 µM each time. Also, the TGI in [7], in test [8] and in test [9] was above 100 µM each time.
For the compound `CSc1nc(=O)n(CCC#N)nc1SC`, the TGI in test [2] is 43 µM; in test [3] it was above 100 µM; in [4], above 100 µM; in test [5] it was 67.6 µM; in test [10], above 100 µM; in [6] it was 53.1 µM. The figures for the TGI in test [7], in test [8] and in [9] were above 100 µM, above 100 µM and 98.4 µM, respectively.
Regarding `N=C(N)C1CN(CCc2c[nH]c3ccccc23)C(=O)NC1=O` (stereo unspecified), the TGI in [2], in test [3], in test [4], in test [5], in [10] and in [6] was above 100 µM each time. Further, the TGI in test [7], in test [8] and in [9] was above 100 µM throughout.
In the case of `NC(=S)N/N=C/C(=O)O`, the GI50 is above 100 µM in [2]; above 100 µM in [3]; above 100 µM in test [4]; 72.5 µM in [5]; above 100 µM in [6]; above 100 µM in [7]. The GI50 in test [8] and in test [9] was above 100 µM in each case. Also, the TGI in test [2], in test [3], in test [4], in test [5], in test [6] and in [7] was above 100 µM in each case. The TGI in [8] and in [9] was above 100 µM throughout.
`COC(=O)C[C@](O)(CCCC(C)(C)O)C(=O)O[C@@H]1C(OC)=C[C@]23CCCN2CCc2cc4c(cc2[C@H]13)OCO4`: the GI50 is 0.0217 µM in [1]; 0.0149 µM in test [2]; 0.0235 µM in test [3]; 0.0944 µM in test [4]; 0.0347 µM in test [10]; 0.046 µM in test [6]. The GI50 is 0.0214 µM in test [7], 0.0246 µM in test [8] and 0.0288 µM in test [9]. The TGI in test [1] is 0.503 µM and 0.107 µM; in test [3], 0.657 µM and 0.0931 µM; in test [4] it was 1.85 µM and 4.71 µM; in test [6] it was 0.99 µM and 0.446 µM; in test [7] it was 1.29 µM and 1.39 µM; in test [8], 0.548 µM and 0.086 µM. The TGI in [9] was 0.419 µM and 0.84 µM.
On to `COc1cc(OCc2cccc(-c3ccc(C(O)c4nccs4)cc3)c2C)cc(OC)c1C=O` (stereo unspecified), for which the GI50 in test [1] is 2.22 µM; in test [2] it was 1.11 µM; in test [4] it was 1.79 µM; in test [5] it was 1.9 µM; in test [10], 1.69 µM; in test [6], 2.92 µM. Besides, the GI50 was 3.16 µM in [7], 1.92 µM in test [8] and 1.34 µM in [9]. For the same compound, the TGI in test [1] worked out at 6.93 µM; in [2], 2.4 µM; in [4] it was 4.4 µM; in test [5] it was 5.88 µM; in test [10], 13.7 µM; in test [6] it was 12.3 µM. Besides, the TGI was 13.4 µM in test [7], 10.2 µM in [8] and 5.47 µM in test [9].
`Cc1ccc(S(=O)(=O)Nc2ccccc2C=O)cc1`: the TGI is above 100 µM in test [1]; 25.1 µM in test [2]; 57.7 µM in test [3]; 31.6 µM in test [4]; 34.5 µM in test [5]; 52.4 µM in test [10]. Further, the TGI in test [7] is 75 µM; in [8] it was 66.8 µM; in [9], 36 µM.
As to `O=C(/C=C/c1ccccc1)CCC1C(=O)c2ccccc2C1=O`, the TGI in test [1], in test [2], in test [3], in [4], in test [5] and in [6] was above 100 µM in each case. The TGI in [7], in test [8] and in test [9] was above 100 µM in each case.
Take `N.N.N.N.O=C([O-])CCl.O=C([O-])CCl.[Co+3].[O-][Cl+3]([O-])([O-])[O-]`: the GI50 in test [2] was above 100 µM; in [3], 61.3 µM; in test [4], above 100 µM; in test [5], above 100 µM; in test [10], above 100 µM; in test [6] it was above 100 µM. Also, the GI50 in test [7], in [8] and in test [9] was above 100 µM each time. The TGI in test [2], in test [3], in [4], in [5], in test [10] and in test [6] was above 100 µM throughout. The TGI in test [7], in test [8] and in [9] was above 100 µM each time.
For the compound `CC1=C(C(=O)Nc2ccc(F)c(Cl)c2)C(c2ccccc2O)NC(=S)N1` (stereo unspecified), the GI50 in test [1] is 2.15 µM; in test [2], 21.9 µM; in test [4], 45.1 µM; in [5], 17.8 µM; in [10], above 50 µM; in test [6], 9.43 µM. Besides, the figures for the GI50 in [7] and in [9] were above 50 µM and 21.6 µM, respectively. For the same compound, the TGI in [1], in test [2], in test [4], in test [5], in test [10] and in test [6] was above 50 µM in each case. In addition, the TGI in test [7] and in test [9] was above 50 µM in each case.
Regarding `O=C(Nc1ccn(CCO)c(=O)n1)c1ccccc1`, the TGI in test [1], in test [2], in [3], in test [4], in test [10] and in [6] was above 100 µM each time. Further, in test [9], the TGI is above 100 µM.

The TGI is the concentration at which net growth stops. Read a low TGI as more potent growth arrest. By GI50 is commonly meant the concentration that inhibits growth by half.
